Here are results for 26 compounds from patent US20050154230A1, “Urea derivatives” (Bayer HealthCare AG, priority 2001, published 2005).

A value given as a limit tells only on which side of the number the result lay.

The target in one data set is T1, human VR1 (Homo sapiens, UniProt Q8NER1).
T1 construct: expressed in transfected cells
T1 sequence (Q8NER1 whole entry): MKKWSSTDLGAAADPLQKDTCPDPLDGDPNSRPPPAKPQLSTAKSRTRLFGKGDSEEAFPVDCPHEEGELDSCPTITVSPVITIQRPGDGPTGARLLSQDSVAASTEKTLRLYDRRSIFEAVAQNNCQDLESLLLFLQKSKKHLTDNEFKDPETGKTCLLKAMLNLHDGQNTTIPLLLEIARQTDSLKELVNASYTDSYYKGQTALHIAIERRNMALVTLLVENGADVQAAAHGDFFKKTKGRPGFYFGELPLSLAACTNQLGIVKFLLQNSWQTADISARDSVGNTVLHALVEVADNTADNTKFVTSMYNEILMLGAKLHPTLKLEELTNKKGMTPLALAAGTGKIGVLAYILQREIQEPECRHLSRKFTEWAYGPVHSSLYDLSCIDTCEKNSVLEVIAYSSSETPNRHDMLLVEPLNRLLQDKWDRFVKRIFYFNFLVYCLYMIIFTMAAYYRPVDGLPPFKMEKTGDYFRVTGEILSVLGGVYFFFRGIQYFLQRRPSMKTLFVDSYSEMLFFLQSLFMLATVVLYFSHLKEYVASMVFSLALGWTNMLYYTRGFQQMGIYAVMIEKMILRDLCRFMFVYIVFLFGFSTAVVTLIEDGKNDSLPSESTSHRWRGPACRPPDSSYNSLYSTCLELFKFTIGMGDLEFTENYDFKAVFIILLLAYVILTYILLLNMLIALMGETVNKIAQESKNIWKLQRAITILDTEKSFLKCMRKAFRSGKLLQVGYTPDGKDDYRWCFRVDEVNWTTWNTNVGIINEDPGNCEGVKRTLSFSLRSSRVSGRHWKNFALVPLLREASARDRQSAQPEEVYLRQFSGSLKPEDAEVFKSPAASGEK
Put plainly: Capsaicin-induced Ca2+ influx in the human VR1-transfected CHO cell line (Assay 1). It counts as cell-based. The conditions noted are these: human VR1-CHOluc9aeq cells, 10 nM capsaicin; compound purity about 40 to 90%; read-out: hVR1 class. A digest of the protocol:
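CHO cells expressing human VR1 with an aequorin reporter were treated with compound or vehicle for 20 min at 25° C. Capsaicin-induced Ca^2+ influx was then measured on an FDSS-3000. Integral R was calculated and compared with controls.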
On to `N#Cc1ccc(-c2cccc(NC(=O)Nc3ccccc3CCO)c2)cc1` [Example 230], for which the IC50 is below 100 nM.
For `COc1cccc(OC)c1-c1cccc(NC(=O)Nc2ccccc2CCO)c1` [Example 231], the IC50 was in the range of 500 to 1000 nM.
For `N#Cc1cccc(-c2cccc(NC(=O)Nc3ccccc3CCO)c2)c1` [Example 232], the IC50 was below 100 nM.
In the case of `O=C(Nc1cccc(-c2ccccc2Cl)c1)Nc1cc(C(F)(F)F)ccc1CCO` [Example 233], the IC50 is 100 to 500 nM.
As to `O=C(Nc1cccc(-c2cccc([N+](=O)[O-])c2)c1)Nc1ccccc1CCO` [Example 234], the IC50 is below 100 nM.
For the compound `COc1ccc(F)cc1-c1cccc(NC(=O)Nc2ccccc2CCO)c1` [Example 235], the IC50 was below 100 nM.
Same read-out and setting: for `O=C(Nc1cccc(-c2ccc(OCc3ccccc3)c(F)c2)c1)Nc1ccccc1CCO` [Example 236] the value was below 100 nM; for `COc1cc(-c2cccc(NC(=O)Nc3ccccc3CCO)c2)cc(OC)c1OC` [Example 237], 100 to 500 nM; for `O=C(Nc1cccc(-c2cccc(C(F)(F)F)c2)c1)Nc1ccccc1CCO` [Example 238], below 100 nM.
In the case of `O=C(Nc1cccc(-c2cccc(OC(F)(F)F)c2)c1)Nc1ccccc1CCO` [Example 239], the IC50 is below 100 nM.
Regarding `O=C(Nc1cccc(-c2ccc(OC(F)(F)F)cc2)c1)Nc1ccccc1CCO` [Example 240], the IC50 is below 100 nM.
As to `O=C(Nc1cccc(-c2ccccc2C(F)(F)F)c1)Nc1ccccc1CCO` [Example 241], the IC50 is below 100 nM.
Consider `COc1cccc(-c2cccc(NC(=O)Nc3ccccc3CCO)c2)c1` [Example 242], for which the IC50 was below 100 nM.
The same measure, in the same setting: as for `O=C(Nc1ccc(-c2ccccc2)s1)Nc1ccccc1CCO` [Example 243], the figure is below 100 nM; as for `O=C(Nc1ccc(-c2ccccc2)c(Cl)c1)Nc1ccccc1CCO` [Example 244], 100 to 500 nM.
In the case of `O=C(Nc1cccc(-c2ccccc2Cl)c1)Nc1ccc(Cl)cc1CCO` [Example 245], the IC50 is 100 to 500 nM.
With `O=C(Nc1cccc(-c2ccc(Cl)cc2)c1)Nc1ccc(Cl)cc1CCO` [Example 246], the IC50 lay in the range of 500 to 1000 nM.
Turning to `O=C(Nc1cccc(-c2ccoc2)c1)Nc1ccccc1CCO` [Example 247], the IC50 is below 100 nM.
Take `Cc1ccc(-c2cccc(NC(=O)Nc3ccccc3CCO)c2)cc1Cl` [Example 248]: the IC50 was below 100 nM.
Take `O=C(Nc1cccc(-c2ccc(Cl)c(F)c2)c1)Nc1ccccc1CCO` [Example 249]: the IC50 was below 100 nM.
On to `O=C(Nc1ccccc1CCO)Nc1cccc2c1Cc1ccccc1-2` [Example 253], for which the IC50 is below 100 nM.
Same read-out and setting: for `O=C(Nc1ccc(Cl)c(C(F)(F)F)c1)Nc1cccc(C(F)(F)F)c1CCO` [Example 254] the value was 100 to 500 nM; for `O=C(Nc1ccc(Cl)c(C(F)(F)F)c1)Nc1cccc(Br)c1CCO` [Example 255], below 100 nM.
For the compound `Cc1cccc(NC(=O)Nc2ccc(Cl)c(C(F)(F)F)c2)c1CCO` [Example 256], the IC50 was below 100 nM.
Same read-out and setting: as for `O=C(Nc1ccc(Cl)c(C(F)(F)F)c1)Nc1cccc(-c2ccccc2)c1CCO` [Example 257], the figure is 100 to 500 nM; as for `Cc1cccc(NC(=O)NCc2ccc(C(F)(F)F)cc2)c1CCO` [Example 258], below 100 nM.

Test system in another data set: not given
Test: not given
Settings: not given
`N#Cc1ccc(-c2cccc(NC(=O)Nc3ccccc3CCO)c2)cc1` [Example 230] gave a melting point of 180 to 182 °C.
Compound `COc1cccc(OC)c1-c1cccc(NC(=O)Nc2ccccc2CCO)c1` [Example 231] registered a melting point of 180 to 181 °C.
`N#Cc1cccc(-c2cccc(NC(=O)Nc3ccccc3CCO)c2)c1` [Example 232]: the melting point was in the range of 186 to 187 °C.
Turning to `O=C(Nc1cccc(-c2ccccc2Cl)c1)Nc1cc(C(F)(F)F)ccc1CCO` [Example 233], the melting point was 185 to 187 °C.
In turn, `O=C(Nc1cccc(-c2cccc([N+](=O)[O-])c2)c1)Nc1ccccc1CCO` [Example 234] had a melting point of 188 °C.
The same measure, in the same setting: as for `COc1ccc(F)cc1-c1cccc(NC(=O)Nc2ccccc2CCO)c1` [Example 235], the figure is 158 to 160 °C; as for `O=C(Nc1cccc(-c2ccc(OCc3ccccc3)c(F)c2)c1)Nc1ccccc1CCO` [Example 236], 181 to 182 °C; as for `COc1cc(-c2cccc(NC(=O)Nc3ccccc3CCO)c2)cc(OC)c1OC` [Example 237], 81 to 83 °C.
`O=C(Nc1cccc(-c2cccc(C(F)(F)F)c2)c1)Nc1ccccc1CCO` [Example 238] registered a melting point of 180 °C.
Still for that read-out and setting: for `O=C(Nc1cccc(-c2cccc(OC(F)(F)F)c2)c1)Nc1ccccc1CCO` [Example 239] the value was 166 °C.
As for `O=C(Nc1cccc(-c2ccc(OC(F)(F)F)cc2)c1)Nc1ccccc1CCO` [Example 240], the melting point was 184 °C.
Same read-out and setting: as for `O=C(Nc1cccc(-c2ccccc2C(F)(F)F)c1)Nc1ccccc1CCO` [Example 241], the figure is 153 °C.
On to `COc1cccc(-c2cccc(NC(=O)Nc3ccccc3CCO)c2)c1` [Example 242], for which the melting point amounted to 163 °C.
The same measure, in the same setting: as for `O=C(Nc1ccc(-c2ccccc2)s1)Nc1ccccc1CCO` [Example 243], the figure is 159 °C; as for `O=C(Nc1ccc(-c2ccccc2)c(Cl)c1)Nc1ccccc1CCO` [Example 244], 178 °C; as for `O=C(Nc1cccc(-c2ccccc2Cl)c1)Nc1ccc(Cl)cc1CCO` [Example 245], 191 to 193 °C.
In turn, `O=C(Nc1cccc(-c2ccc(Cl)cc2)c1)Nc1ccc(Cl)cc1CCO` [Example 246] displayed a melting point of 209 to 211 °C.
In turn, `O=C(Nc1cccc(-c2ccoc2)c1)Nc1ccccc1CCO` [Example 247] yielded a melting point of 190 °C.
`Cc1ccc(-c2cccc(NC(=O)Nc3ccccc3CCO)c2)cc1Cl` [Example 248] displayed a melting point of 194 °C.
With `O=C(Nc1cccc(-c2ccc(Cl)c(F)c2)c1)Nc1ccccc1CCO` [Example 249], the melting point was found to be 180 °C.
As to `O=C(Nc1ccccc1CCO)Nc1cccc2c1Cc1ccccc1-2` [Example 253], the melting point was in the range of 182 to 183 °C.
For `O=C(Nc1ccc(Cl)c(C(F)(F)F)c1)Nc1cccc(C(F)(F)F)c1CCO` [Example 254], the melting point worked out at 201 °C.
The same measure, in the same setting: as for `O=C(Nc1ccc(Cl)c(C(F)(F)F)c1)Nc1cccc(Br)c1CCO` [Example 255], the figure is 209 °C; as for `Cc1cccc(NC(=O)Nc2ccc(Cl)c(C(F)(F)F)c2)c1CCO` [Example 256], 201 °C; as for `O=C(Nc1ccc(Cl)c(C(F)(F)F)c1)Nc1cccc(-c2ccccc2)c1CCO` [Example 257], 173 °C.
`Cc1cccc(NC(=O)NCc2ccc(C(F)(F)F)cc2)c1CCO` [Example 258]: the melting point came out at 213 °C.

By melting point is commonly meant the temperature of the solid-liquid transition.
